Data: US20040077715A1, “Use of an isothiocyanate, a thiocyanate or a mixture thereof as depigmenting agent” (priority 2001, published 2004)
One block for each compound: values may come before it.

Tests used:
[1] = tested on: fungal tyrosinase (EC. 1.14.18.1); assay: Measurement of the power to inhibit tyrosinase (L-Dopa oxidation to dopachrome, O.D. at 475 nm); type: biochemical; conditions: for Concentration which inhibits the enzymatic activity of tyrosinase by 50%: fungal tyrosinase, L-Dopa substrate, pH 6.5, 30° C.; for Times more active than hydroquinone in inhibiting tyrosinase: relative to hydroquinone
Method: The following reaction is used: colourless L-Dopa (L-3,4-dihydroxyphenylalanine, obtained from Sigma (ref. D-9628)) is oxidized to coloured dopachrome, which absorbs at 475 nm. This reaction is catalyzed by fungal tyrosinase (EC. 1.14.18.1, obtained from Sigma (ref. T-7755)). The kinetics of the reaction are recorded by the measurement of the optical density (O.D.) as a function of the time at 30° C.
The compositions of the various solutions used are as follows:
L-Dopa at 0.35% (w/v) in the pH 6.5 buffer solution.
The inhibiting molecules are dissolved directly in the pH 6.5 buffer, in 50% methanol (methanol/distilled water) or in pure methanol, depending upon their solubility.
The concentrations in weight by volume of the various solutions of inhibitors are: 0.2%, 0.1%, 0.05%, 0.025%, 0.0125%, 0.00625% and 0.00312%.
Tyrosinase at 0.010% (w/v) in the pH 6.5 buffer solution.
The amounts of these various solutions used during the tests are presented in Tables 1 and 2 for each reaction studied:
The action of tyrosinase is evaluated by the initial rate of the reaction measured on the O.D. recording.
The initial rates of reactions without inhibitors (concentration 0) and the rates at the various concentrations tested are plotted on a curve.
The inhibiting power of a molecule is defined as the concentration which reduces the action of tyrosinase by 50%.

[2] = tested on: Type-6 pigmented epidermis (reconstituted human skin); assay: Power to inhibit the synthesis of melanin with regard to pigmented human skin reconstituted in culture; type: cell-based; conditions: daily for 5 days, then two further days
Method: Type-6 pigmented epidermis (corresponding to black skin), in a proportion of three samples per test, were treated daily for 5 days with a control cream with the following composition (as % by weight): [table] with kojic acid at a concentration of 3.5×10^−5 (w/w) and with sulforaphane at a concentration of 3.5×10^−6 (w/w) in the same cream acting as excipient. At the end of the treatment, the culture skin is left for a further two days and the melanin is extracted from the treated skin and from the control skin with a mixture of solvents and sodium hydroxide (Solvable® from Packard Bioscience B.V.) and the melanin extracted is quantified by colorimetry according to a method described previously (Chemical Characterization of Hair Melanins in Various Coat-Color Mutants of Mice; Hiroyuki Ozeki et al., J. Invest.

cultured melanocytes = assay: Power to inhibit the synthesis of melanin with regard to cultured melanocytes; type: cell-based; conditions: for Effect on the synthesis of melanin (in words) / Inhibition of the synthesis of melanin: concentration of 0.00035%; for Inhibition of the synthesis of melanin: 8 independent tests
Method: These tests were carried out on different batches of cells during experiments which were independent and repeated (8 times).
The results are expressed in mg/ml of melanin in so far as the cells are inoculated at the same concentration.

[3] = tested on: pigmented skin of guinea pigs; assay: Test of the depigmenting power on pigmented guinea pigs; conditions: glycerol-based cream comprising 5% of product, twice daily
Method: Guinea pigs with a pigmented skin, shaved beforehand, received twice daily, 5 days out of 7, during one to two months of treatment, applications of a glycerol-based cream comprising 5% of kojic acid (ref. Aldrich 22,046-9) or 5% of hydroquinone (ref. Aldrich H 1,790-2) or 5% of benzoyl isothiocyanate (ref. Aldrich 30,818-8) or 5% of synthetic sulforaphane prepared according to Example 3. These applications were carried out on circular regions with a diameter of 2 cm pinpointed by indelible marking using yellow ink.

Structure (SMILES): CC(=O)N=C=S [Acetyl isothiocyanate]
Concentration which inhibits the enzymatic activity of tyrosinase by 50% [1]: 0.055 % (weight/volume)

Structure (SMILES): N#CSCc1ccccc1 [Benzyl thiocyanate]
Concentration which inhibits the enzymatic activity of tyrosinase by 50% [1]: 0.25 % (weight/volume)

Structure (SMILES): C[S+]([O-])CCCCN=C=S (centres unmarked) [Sulforaphane]
Inhibition of the synthesis of melanin (melatonin [sic]) ([2]; 3.5×10^−6 (w/w) in cream): 30%
Concentration which inhibits the enzymatic activity of tyrosinase by 50% [1]: 0.103 % (weight/volume)
Times more active than hydroquinone in inhibiting tyrosinase [1]: approximately 1.5 times
Effect on the synthesis of melanin (in words) (cultured melanocytes): inhibit the synthesis of melanin
Inhibition of the synthesis of melanin (cultured melanocytes): 26.22%

Structure (SMILES): O=C(N=C=S)c1ccccc1 [Benzoyl isothiocyanate]
Concentration which inhibits the enzymatic activity of tyrosinase by 50% [1]: 0.0063 % (weight/volume)
Times more active than hydroquinone in inhibiting tyrosinase [1]: approximately 24 times
Effect on the synthesis of melanin (in words) (cultured melanocytes): no longer have an effect
Inhibition of the synthesis of melanin (cultured melanocytes): 9.5%
Desquamation of the skin at the application spots ([3]; 5 days out of 7): desquamation of the skin

Structure (SMILES): O=c1cc(CO)occ1O [Kojic acid, kojic acid, reference compound]
Inhibition of the synthesis of melanin (melatonin [sic]) ([2]; 3.5×10^−5 (w/w) in cream): 8%
Effect on the synthesis of melanin (in words) (cultured melanocytes): no longer have an effect
Inhibition of the synthesis of melanin (cultured melanocytes): 1%
Whitening of the skin ([3]; 5 days out of 7, after treating for 4 weeks): no effect

Structure (SMILES): N#C[S-].[K+] [Potassium thiocyanate]
Concentration which inhibits the enzymatic activity of tyrosinase by 50% [1]: 0.20 % (weight/volume)

Structure (SMILES): S=C=NC1CCCCC1 [Cyclohexyl isothiocyanate]
Concentration which inhibits the enzymatic activity of tyrosinase by 50% [1]: 0.104 % (weight/volume)

Concentration which inhibits the enzymatic activity of tyrosinase by 50% [1]: 0.154 % (weight/volume)
Structure (SMILES): Oc1ccc(O)cc1 [Hydroquinone]
Effect on the synthesis of melanin (in words) (cultured melanocytes): inhibit the synthesis of melanin
Inhibition of the synthesis of melanin (cultured melanocytes): 42%
Cytotoxicity (cultured melanocytes; cultured melanocytes): excessively high cytotoxicity

Structure (SMILES): S=C=NCc1ccccc1 [Benzyl isothiocyanate]
Concentration which inhibits the enzymatic activity of tyrosinase by 50% [1]: 0.0980 % (weight/volume)
